Test results: patent US4205163A, “Tylosin derivatives” (Sanraku-Ocean Co., Ltd., priority 1977, dated 1980)
Converted amounts (≈) assume the structure as drawn. Where two headings read alike, the source gives them in different places.

How the values were obtained:
in vivo = details: mouse, po, 100 mg/kg
Protocol: The new antibiotics according to the present invention were each orally administered to mice at a dose of 100 mg/kg. Each blood level was then measured and compared with those of tylosin and 3-acetyltylosin.

[1] = test system: Staphylococcus aureus MS-9931; assay: antimicrobial activity, broth dilution method; format: cell-based
Outline: (§1)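 Activity was measured by broth dilution against each strain. S. aureus MS-8710 is a clinical isolate resistant to tylosin, penicillin, tetracycline, erythromycin and leucomycin. The S. pyogenes strain is a clinical isolate resistant to tylosin, erythromycin, oleandomycin and leucomycin.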

[2] = test system: Streptococcus pyogenes MH-771; assay: antimicrobial activity, broth dilution method; format: cell-based; details: Streptococcus pyogenes
Outline: as §1

[3] = test system: Staphylococcus aureus FDA-209P; assay: antimicrobial activity, broth dilution method; format: cell-based; details: Staphylococcus aureus, FDA209P, read-out: minimum inhibitory concentration (MIC)
Outline: as §1

[4] = test system: Staphylococcus aureus MS-8710; assay: antimicrobial activity, broth dilution method; format: cell-based; details: Staphylococcus aureus
Outline: as §1

[5] = test system: Staphylococcus aureus SMITH; assay: antimicrobial activity, broth dilution method; format: cell-based; details: Staphylococcus aureus, read-out: minimum inhibitory concentration (MIC)
Outline: as §1

[6] = test system: Bacillus cereus ATCC 9634; assay: antimicrobial activity, broth dilution method; format: cell-based; details: Bacillus cereus
Outline: as §1

[7] = test system: Staphylococcus aureus MS-9937; assay: antimicrobial activity, broth dilution method; format: cell-based
Outline: as §1

Sarcina lutea ATCC 9341 = assay: antimicrobial activity, broth dilution method; format: cell-based; details: Micrococcus luteus, ATCC9341, Sarcina lutea ATCC 9341, read-out: minimum inhibitory concentration (MIC)
Outline: as §1

[8] = test system: Mycoplasma gallisepticum E-5; assay: antibacterial activity against Mycoplasma; format: cell-based; details: Mycoplasmoides gallisepticum, E5
From the text: (§2) Furthermore the new antibiotics according to the present invention also show antimicrobial activity on Mycoplasma. In particular, it is noteworthy that they have much higher antimicrobial activity than tylosin on Mycoplasma that is resistant to macrolide antibiotics. Tab.
(§3) *Macrolide resistant strain
(§4) **Medium (Eiken PPLO Medium)

[9] = test system: Mycoplasma gallisepticum A-72; assay: antibacterial activity against Mycoplasma; format: cell-based; details: Mycoplasmoides gallisepticum, A72; strain A-72, macrolide resistant; Eiken PPLO Medium
From the text: as §2, §3, §4

[10] = test system: Mycoplasma gallisepticum E-11; assay: antibacterial activity against Mycoplasma; format: cell-based; details: Mycoplasmoides gallisepticum, E11
From the text: as §2, §3, §4

[11] = test system: Mycoplasma gallisepticum KP-13; assay: antibacterial activity against Mycoplasma; format: cell-based; details: Mycoplasmoides gallisepticum, KP13
From the text: as §2, §4

[12] = toxicity in chickens, mixed with feed for a month; format: in vivo; details: mixed with feed at 0.3%
From the text: 3-Acetyl-4"-D-(α-hydroxyphenylacetyl)tylosin, 4"-phenylthioacetyltylosin and 4"-benzenesulfonylacetyltylosin, selected as the representative compounds according to the present invention, were mixed with feed at a ratio of 0.3%, respectively and given to chickens for a month.

[13] = MS9931, Staphylococcus aureus MS-9931, drug-resistant clinical isolate, read-out: minimum inhibitory concentration (MIC)
[14] = MH771, Streptococcus pyogenes MH-771, drug-resistant clinical isolate, read-out: minimum inhibitory concentration (MIC)
[15] = Staphylococcus aureus FDA-209P, broth dilution
[16] = MS8710, Staphylococcus aureus MS-8710, drug-resistant clinical isolate, read-out: minimum inhibitory concentration (MIC)
[17] = Staphylococcus aureus SMITH, broth dilution
[18] = ATCC9634, Bacillus cereus ATCC 9634, broth dilution, read-out: minimum inhibitory concentration (MIC)
[19] = MS9937, Staphylococcus aureus MS-9937, drug-resistant clinical isolate, read-out: minimum inhibitory concentration (MIC)
[20] = strain E-5, macrolide resistant, Eiken PPLO Medium, read-out: MIC
[21] = strain E-11, macrolide resistant, Eiken PPLO Medium, read-out: MIC
[22] = strain KP-13, Eiken PPLO Medium, read-out: MIC

Row | SMILES | concentration at 1 h (in vivo) [ng/mL] | concentration at 3 h (in vivo) [ng/mL] | MIC [1, 13] [µg/mL] | MIC [2, 14] [µg/mL] | MIC [3, 15] [µg/mL] | MIC [4, 16] [µg/mL] | MIC [5, 17] [µg/mL] | MIC [6, 18] [µg/mL] | MIC [7, 19] [µg/mL] | MIC (Sarcina lutea ATCC 9341) [µg/mL] | MIC [8, 20] [µg/mL] | MIC [9] [µg/mL] | MIC [10, 21] [µg/mL] | MIC [11, 22] [µg/mL] | toxicity [12] | also measured
1 | CCC1OC(=O)CC(O)C(C)C(OC2OC(C)C(OC3CC(C)(O)C(OC(=O)CCc4ccccc4)C(C)O3)C(N(C)C)C2O)C(CC=O)CC(C)C(=O)C=CC(C)=CC1COC1OC(C)C(O)C(OC)C1OC (stereo not drawn) [Compound 24, 4"-β-phenylpropionyltylosin] | 12000 | 2000 | 12.5 (≈ 11.9 µM) | 25 (≈ 23.8 µM) | 0.78 (≈ 0.744 µM) | 12.5 (≈ 11.9 µM) | 0.39 (≈ 0.372 µM) | 0.78 (≈ 0.744 µM) | 25 (≈ 23.8 µM) | 0.19 (≈ 0.181 µM) | 0.313 (≈ 0.299 µM) | 0.157 (≈ 0.15 µM) | 0.313 (≈ 0.299 µM) | 0.078 (≈ 0.0744 µM) |  | 
2 | CC[C@H]1OC(=O)C[C@@H](O)[C@H](C)[C@@H](O[C@@H]2O[C@H](C)[C@@H](O[C@H]3C[C@@](C)(O)[C@@H](O)[C@H](C)O3)[C@H](N(C)C)[C@H]2O)[C@@H](CC=O)C[C@@H](C)C(=O)/C=C/C(C)=C/[C@@H]1CO[C@@H]1O[C@H](C)[C@@H](O)[C@@H](OC)[C@H]1OC [tylosin] |  |  |  |  |  |  |  |  |  | 0.19 (≈ 0.207 µM) |  | 2.5 (≈ 2.73 µM) |  |  |  | Cmax (in vivo): ≤ 1000 ng/mL; MIC ([1]; Staphylococcus aureus, MS9931, read-out: minimum inhibitory concentration (MIC)): 200 µg/mL (≈ 218 µM); MIC ([2]; MH771, read-out: minimum inhibitory concentration (MIC)): > 200 µg/mL; MIC [3]: 0.39 µg/mL (≈ 0.426 µM); MIC ([4]; MS8710, read-out: minimum inhibitory concentration (MIC)): > 200 µg/mL; MIC [5]: 0.39 µg/mL (≈ 0.426 µM); MIC ([6]; ATCC9634, read-out: minimum inhibitory concentration (MIC)): 0.78 µg/mL (≈ 0.851 µM); MIC ([7]; Staphylococcus aureus, MS9937, read-out: minimum inhibitory concentration (MIC)): 100 µg/mL (≈ 109 µM); MIC [8]: 2.5 µg/mL (≈ 2.73 µM); MIC [10]: 2.5 µg/mL (≈ 2.73 µM); MIC [11]: 0.019 µg/mL (≈ 0.0207 µM)
3 | CCC1OC(=O)CC(OC(C)=O)C(C)C(OC2OC(C)C(OC3CC(C)(O)C(OC(=O)C(O)c4ccccc4)C(C)O3)C(N(C)C)C2O)C(CC=O)CC(C)C(=O)C=CC(C)=CC1COC1OC(C)C(O)C(OC)C1OC [Compound 17, 3-acetyl-4"-D-(α-hydroxyphenylacetyl)tylosin] | 10000 | 2000 | 12.5 (≈ 11.4 µM) | 6.25 (≈ 5.72 µM) |  |  |  |  | 12.5 (≈ 11.4 µM) |  | 0.625 (≈ 0.572 µM) | 0.313 (≈ 0.287 µM) | 0.625 (≈ 0.572 µM) | 0.157 (≈ 0.144 µM) | No toxicity was observed | 
4 | CCC1OC(=O)CC(O)C(C)C(OC2OC(C)C(OC3CC(C)(O)C(OC(=O)CS(=O)(=O)c4ccccc4)C(C)O3)C(N(C)C)C2O)C(CC=O)CC(C)C(=O)C=CC(C)=CC1COC1OC(C)C(O)C(OC)C1OC (stereo not drawn) [Compound 43, 4"-benzenesulfonylacetyltylosin] |  |  | 6.25 (≈ 5.69 µM) | 3.13 (≈ 2.85 µM) | 0.78 (≈ 0.71 µM) | 6.25 (≈ 5.69 µM) | 0.78 (≈ 0.71 µM) | 0.78 (≈ 0.71 µM) | 6.25 (≈ 5.69 µM) | 0.39 (≈ 0.355 µM) | 0.078 (≈ 0.071 µM) | 0.039 (≈ 0.0355 µM) | 0.078 (≈ 0.071 µM) | 0.019 (≈ 0.0173 µM) | No toxicity was observed | 
5 | CCC1OC(=O)CC(O)C(C)C(OC2OC(C)C(OC3CC(C)(O)C(OC(=O)CSc4ccccc4)C(C)O3)C(N(C)C)C2O)C(CC=O)CC(C)C(=O)C=CC(C)=CC1COC1OC(C)C(O)C(OC)C1OC (stereo not drawn) [Compound 34, 4"-phenylthioacetyltylosin] |  |  | 12.5 (≈ 11.7 µM) | 6.25 (≈ 5.86 µM) | 0.39 (≈ 0.366 µM) | 6.25 (≈ 5.86 µM) | 0.39 (≈ 0.366 µM) | 0.39 (≈ 0.366 µM) | 12.5 (≈ 11.7 µM) | 0.19 (≈ 0.178 µM) | 0.078 (≈ 0.0731 µM) | 0.078 (≈ 0.0731 µM) | 0.078 (≈ 0.0731 µM) | 0.019 (≈ 0.0178 µM) | No toxicity was observed | 
